Assay results reported in patent US20050119243A1, “HIF-1 inhibitors and methods of use thereof” (priority 2003, published 2005).
Residues, ends and D or L forms follow the SMILES beside them. *: point of attachment. Cbz = O=C(OCc1ccccc1)*

Tests used:
[1] = system: HIF-1α; assay: Western blot analysis of HIF-1α in HEK 293 cells under ambient oxygen; assay type: cell-based, human; settings: HEK 293, ambient oxygen, 1 hr
Method: The first unexpected finding was that the combination of DBM plus Zn^2+ reversed the induced stabilization of HIF-1α observed when the cells were exposed to either DBM or Zn^2+ alone under normoxic conditions (FIG. 15). HEK 293 embryonic kidney cells were incubated at ambient levels of oxygen for 1 hr with the addition of DBM alone, Zn^2+ alone or the combination. HIF-1α was not detected at baseline by Western blot (FIG. 15, lane 1).
One possible explanation for the loss of HIF-1α stabilization in cells treated with DBM plus Zn^2+ is chelation. DBM is a bidentate metal chelator that could itself bind to Zn^2+ in a 2:1 stochiometric ratio, however, the observed loss of HIF-1α stabilization occurred when either DBM or Zn^2+ was present in 50 μM excess at ratios of 4:1 (FIG. 15, lane 3) and 1:1 (FIG. 15, lane 5), respectively. […] Presumably, the increases in HIF-1α in FIG. 15 resulted from HIF P4H inhibition leading to diminished prolyl-4-hydroxylation and disruption of proteosomal degradation.

[2] = system: HIF-1α; assay: Western blot analysis of HIF-1α in HT144 melanoma cells under hypoxic conditions; assay type: cell-based, human; settings: HT 144 cells; for HIF-1α levels by Western blot: 2 hours under 1% O2
Method: (§1) HT 144 melanoma cells (FIG. 16(A)) and HEK 293 embryonic kidney cells (FIG. 16(B)) were incubated for 2 hours under 1% O2. HIF-1α […].

[3] = system: HIF-1α; assay: Western blot analysis of HIF-1α in HEK 293 cells under hypoxic conditions; assay type: cell-based, human; settings: for HIF-1α levels by Western blot: 2 hours under 1% O2
Method: as §1

[4] = system: HIF-1α mRNA; assay: Semiquantitative PCR of HIF-1α mRNA levels in HEK 293 cells under normoxia; assay type: cell-based, human; settings: HEK 293, normoxia, 2 hours, serum free media
Method: The effects of DBM alone, Zn^2+ alone and DBM plus Zn^2+ on HIF-1αmRNA levels were assessed by semiquantitative PCR in extracts of HEK 293 kidney cells under normoxia for 2 hours in serum free media (FIG. 17). […] HIF-1αZ mRNA levels were not found to be increased (data not shown).

[5] = system: HIF-1α; assay: Western blot analysis of HIF-1α in HEK 293 cells with or without proteosome inhibitor MG-132, ambient oxygen; assay type: cell-based, human; settings: HEK 293, ambient oxygen; for HIF-1α detection by Western blot: 2 hours, agent without further addition; for HIF-1α detection by Western blot with MG-132 added: agent plus MG-132
Method: Proteosomal degradation of HIF-1α was assessed in HEK 293 embryonic kidney cells treated with DBM alone, Zn^2+ alone or the combination under ambient oxygen in the presence or absence of the proteosome inhibitor MG-132 (FIG. 18). […] (FIG. 18, lane 5). […] The HIF-1α isoforms are more clearly resolved on the gel from FIG. 18 than FIG. 15. This may be due to differences in the time the gels were run.

[6] = system: HIF-1α; assay: HIF-1α detection in HEK 293 and HT144 cells treated with DBM plus metals; assay type: cell-based, human; settings: cells exposed to DBM plus the metal
Source text: In subsequent studies, similar data has been found for HEK 293 human embryonic kidney cells and HT144 melanoma cells treated with either DBM or Zn^2+. […] This finding appears to be unique to the combination of DBM with Zn^2+ since it was not observed in cells exposed to DBM plus other metals such as Fe^3+, Co^2+, Cd^2+, and Ni^2+. Furthermore, this unexpected reversal of the independent effects of DBM and Zn^2+ was not blocked by hypoxia. These observations are counterintuitive since inhibitors of HIF P4H should impede degradation of HIF-1α. Also, these two HIF P4H inhibitors appear to work in concert under inhibitory conditions to down-regulate HIF-1α with little effect on HIF-1α mRNA levels.

[7] = system: HIF-1α; assay: Western blot analysis of HIF-1α in VHL (−/−) RCC-4 renal cell carcinoma cells, normoxic; assay type: cell-based, human; settings: RCC-4 VHL (−/−), 1 hour
Source text: As expected, HIF-1α was detected by Western blot under normoxic conditions (FIG. 19, lane 1). […] These experiments have not been performed as yet in RCC4 cells with DBM alone or in RCC4 cells transfected with pVHL.

[8] = system: HIF-1α and VEGF; settings: LNCaP cells, ambient O2; cited from earlier work
[9] = system: VEGF; settings: patients with metastatic kidney cancer, high doses; cited from earlier work
Chain of VEGF (P15692 207-311 limits assumed): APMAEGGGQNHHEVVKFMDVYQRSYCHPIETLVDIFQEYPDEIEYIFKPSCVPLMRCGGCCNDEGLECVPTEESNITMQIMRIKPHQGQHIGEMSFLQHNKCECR

[Zn+2] [Zn^2+]
HIF-1α levels by Western blot ([1]; Zn^2+ alone 25 μM to 100 μM): increased HIF-1α levels in a dose dependent manner
HIF-1α levels by Western blot [2]: decreased the more rapidly migrating isoforms of HIF-1α
HIF-1α levels by Western blot [3]: little effect
HIF-1α mRNA levels (PCR product) [4]: not significantly different from baseline
HIF-1α detection by Western blot [5]: readily detected
HIF-1α detection by Western blot with MG-132 added [5]: did not stabilize these other forms of HIF-1α

[Cd+2] [Cd^2+]
Loss of HIF-1α detection on simultaneous treatment with DBM plus metal [6]: not observed

CC(C)C[C@@H](C=O)NC(=O)[C@H](CC(C)C)NC(=O)[C@H](CC(C)C)NC(=O)OCc1ccccc1 [MG-132, reference compound] (Cbz-Leu-Leu-Leu-aldehyde)
HIF-1α detection by Western blot [5]: accumulation of a broad range of proteins that possibly represent ubiquitinated forms of HIF-1α
HIF-1α detection by Western blot [7]: Stabilization of HIF-1α was enhanced

[Co+2] [Co^2+, reference compound]
Loss of HIF-1α detection on simultaneous treatment with DBM plus metal [6]: not observed
HIF-1α and VEGF levels [8]: rapidly increase

[Ni+2] [Ni^2+]
Loss of HIF-1α detection on simultaneous treatment with DBM plus metal [6]: not observed

bevacizumab: humanized monoclonal antibody specific for VEGF
Clinical response [9]: Clinical responses have been observed

O=C(CC(=O)c1ccccc1)c1ccccc1 [DBM, 1,3-diphenylpropane-1,3-dione]
HIF-1α levels by Western blot ([1]; DBM alone at 100 μM): significant increase in HIF-1α levels
HIF-1α levels by Western blot [2]: significantly increased the levels of HIF-1α
HIF-1α levels by Western blot [3]: significantly increased the levels of HIF-1α
HIF-1α mRNA levels (PCR product) [4]: not significantly different from baseline
HIF-1α detection by Western blot [5]: readily detected
HIF-1α detection by Western blot with MG-132 added [5]: did not stabilize these other forms of HIF-1α
HIF-1α and VEGF levels [8]: rapidly increase

[Fe+3] [Fe^3+, reference compound]
HIF-1α levels by Western blot, metal added to DBM ([2]; 2 hours under 1% O2, with DBM): did not significantly alter the effect of DBM on HIF-1α levels
HIF-1α levels by Western blot, metal added to DBM ([3]; 2 hours under 1% O2, with DBM): decreased slower migrating isoforms of HIF-1α
Loss of HIF-1α detection on simultaneous treatment with DBM plus metal [6]: not observed
